Experimental data from patent US5599975A, “Cyclised analogues of fatty acid metabolites” (Adir Et Compagnie, priority 1993, dated 1997).

Test system: rabbit platelets
Assay: Platelet aggregation study: anti-aggregating effect on platelets activated with collagen
Format: cell-based
Details: Oryctolagus cuniculus, 0.05 h, collagen (2 μl/ml), 37° C., 3 minutes incubation, aggregometer, 1000 rpm, read-out: IC50 (concentration of antagonist necessary to produce 50% inhibition of the aggregating responses to collagen)
Procedure: The study is carried out on rabbit platelets. […] The plasma rich in platelets (PRP) is obtained by centrifuging (20° C.) at 250 g for 20 minutes. The PRP is centrifuged again (1000 g) for 15 minutes and the platelet sediment is again suspended in a saline solution buffered with tris(hydroxymethyl)aminomethane, containing gelatin (0.2%). After centrifuging again (1000 g; 15 min.), the sediment is again suspended in a physiological solution and stored at room temperature.
The anti-aggregating effect of the products is examined on platelets activated with collagen (2 μl/ml). The platelet aggregation is carried out at 37° C. in siliconised glass tubes using an aggregometer (Coultronics). The platelets are stirred at 1000 rpm. To test the antagonist effect, the PRP is incubated for 3 minutes at 37° C. with the substance to be tested. The collagen is then added (2 μl/ml).

SMILES | IC50 [µM]
CCCCCC#CCC(O)c1cccc(/C=C\CCCC(=O)O)c1 (centres unmarked) [Example 4] | 2.2
CCCCCC(O)c1cccc(/C=C\CCCC(=O)O)c1 (centres unmarked) [Example 12, Sodium (5Z)-6-[3-(1-hydroxyhex-1-yl)phenyl]hex-5-enoate] | 20
CCCCCC(O)c1cccc(CCCCCC(=O)O)c1 (centres unmarked) [Example 15, Sodium 6-[3-(1-hydroxyhexyl)phenyl]hexanoate] | 21
CCCCCC(O)c1cccc(/C=C\CCCC(=O)O)n1 (centres unmarked) [Example 18, Sodium (5Z)-6-[6-(1-hydroxyhex-1-yl)pyrid-2-yl]hex-5-enoate] | 30
CCCCC/C=C\CC(O)c1cccc(/C=C\CCCC(=O)O)c1 (centres unmarked) [Example 26, Sodium (5Z)-6-{3-[(3Z)-(1-hydroxynon-3-en-1-yl)]phenyl}hex-5-enoate] | 1.8
